Results from paper PMC11091889, “Silver Organometallics that are Highly Potent Thioredoxin and Glutathione Reductase Inhibitors: Exploring the Correlations of Solution Chemistry with the Strong Antibacterial Effects” (ACS Infectious Diseases, 2024).

Experiments:
[1] = Conductometry: molar conductivity of silver complexes in DMSO; type: physicochemical; details: 1.0 mM in DMSO, calculated as monocarbene (NHC)AgX
Experimental: Since both the neutral monocarbene and the ionic biscarbene form of the complexes may exist in various proportions in the solution, conductometry studies were performed to reveal the dominant structure. The molar conductivity of 1.0 mM solutions of each complex in DMSO was determined after different periods up to 24 h using AgNO3 as 1:1 electrolyte reference (see Table 1). According to the literature, the expected range of molar conductivity for 1:1 electrolytes in DMSO is 35–90 S cm^2 mol^–1.[45],[46]
Conductivity measurements were performed using an Apera Instruments EC9500 conductivity meter. Solutions (as indicated, otherwise 1.0 mM) of all compounds were prepared using freshly distilled DMSO with a specific electrical conductivity of ≤3 × 10^–8 S cm^–1. The conductivities were measured at 25 ± 2 °C immediately after complete dissolution and after 24 h.

[2] = test system: E. coli (DSM1116, ATCC 9637); assay: microbe, parasite or virus in culture; type: cell-based, Escherichia coli; details: n = 3, MHB; for EC50 / MIC E. coli: mean ± standard error; for MIC E. coli / MIC E. coli (value in brackets): 22 h
Experimental: (§1) The antibacterial effect of the silver NHC complexes and selected ligands was evaluated in two Gram-positive [Enterococcus faecium, methicillin resistant S. aureus, (MRSA)] and in four Gram-negative (Acinetobacter baumannii, Escherichia coli, Klebsiella pneumoniae, and Pseudomonas aeruginosa) pathogenic bacterial strains using broth microdilution assays. The resulting minimal inhibitory concentrations (MICs, Table 2) and EC50 (Table S6) were determined by a curve fitting procedure. Silver nitrate (AgNO3), SSD, and various antibiotics were used as references.
(§2) The following strains of ESKAPE panel were utilized and maintained at 37 °C in MHB (21 g/L Müller Hinton broth, pH 7.4) or TSY (30 g/L trypticase soy broth, 3 g/L yeast extract, pH 7.0–7.2) media: A. baumannii (DSM 30007, ATCC 19606), E. coli (DSM1116, ATCC 9637), K. pneumoniae (DSM 11678, ATCC33495), P. aeruginosa PA7 (DSM 24068) in MHB; E. faecium (DSM 20477, ATCC 19434), and S. aureus MRSA (DSM 11822, ICB 25701) in TSY. MIC values were determined following a standardized protocol in broth microdilution assays. The compounds and reference substances (AgNO3 and SSD) were serially diluted from 64 to 1 μg/mL. Starting inocula of 2–8 × 10^5 CFU/mL in MHB or TSY media at 37 °C were used, and serial dilutions were carried out in 96-well microtiter plates in duplicate. After incubation of the plates for 22 h at 37 °C, the absorbance at 600 nm was measured using The Spark multimode microplate reader (Tecan Trading AG). The MIC values for the tested compounds were determined in three independent experiments and presented in μM with standard errors and also in μg/mL. Amikacin (P. aeruginosa), linezolid (S. aureus), and ciprofloxacin (all other strains) served as positive controls. The MIC and EC50 values were determined by curve fitting with Sigma Plot. To determine the effect of the culture medium on the activity of silver compounds, the assay was performed using MHB, TSY, or DMEM (Gibco). To observe the effect of individual components of TSY medium, antibacterial tests were performed using MHB with addition of tryptone (17 g/L) or yeast extract (3 g/L, both were purchased from Sigma).

[3] = test system: P. aeruginosa PA7 (DSM 24068); assay: microbe, parasite or virus in culture; type: cell-based, Pseudomonas aeruginosa; details: n = 3, MHB; for MIC P. aeruginosa / EC50: mean ± standard error; for MIC P. aeruginosa / MIC P. aeruginosa (value in brackets): 22 h; for EC50: read-out: EC50 P. aeruginosa
Experimental: as §1, §2

[4] = test system: K. pneumoniae (DSM 11678, ATCC33495); assay: Broth microdilution antibacterial assay; type: cell-based, Klebsiella pneumoniae; details: n = 3, MHB; for MIC K. pneumoniae / EC50: mean ± standard error; for MIC K. pneumoniae / MIC K. pneumoniae (value in brackets): 22 h; for EC50: read-out: EC50 K. pneumoniae
Experimental: as §1, §2

[5] = test system: A. baumannii (DSM 30007, ATCC 19606); assay: Broth microdilution antibacterial assay; type: cell-based, Acinetobacter baumannii; details: n = 3, MHB; for MIC A. baumannii / EC50: mean ± standard error; for MIC A. baumannii / MIC A. baumannii (value in brackets): 22 h; for EC50: read-out: EC50 A. baumannii
Experimental: as §1, §2

[6] = test system: S. aureus MRSA (DSM 11822, ICB 25701); assay: microbe, parasite or virus in culture; type: cell-based, methicillin resistant S. aureus; details: n = 3, TSY; for MIC MRSA / EC50: mean ± standard error; for MIC MRSA / MIC MRSA (value in brackets): 22 h; for EC50: read-out: EC50 MRSA
Experimental: as §1
The importance of the culture medium used in antibacterial assays has been pointed out for antibiotics and in particular for silver.[53]−[55] In our recent studies, tryptic soy yeast (TSY) broth has been used for growing Gram-positive bacteria. Two components thereof, tryptone and yeast extract, have been reported to affect the antibacterial activity of silver nitrate.[55] Moreover, such an effect was also observed for other media containing at least one of those components.[11],[53] […] Silver nitrate served as a reference, and three different growth media were studied, namely, Müller-Hinton Broth (MHB, commonly used for Gram-negative bacteria), TSY broth (commonly used for Gram-positive bacteria), and DMEM supplemented with 10% FCS (commonly used for growth of mammalian and human cells).
as §2

[7] = test system: E. faecium (DSM 20477, ATCC 19434); assay: Broth microdilution antibacterial assay; type: cell-based, Enterococcus faecium; details: n = 3, TSY; for MIC E. faecium / EC50: mean ± standard error; for MIC E. faecium / MIC E. faecium (value in brackets): 22 h; for EC50: read-out: EC50 E. faecium
Experimental: as §1, §2

[8] = test system: P. aeruginosa (PA 14) biofilm; assay: Inhibition of biofilm formation, crystal violet staining; type: cell-based, Pseudomonas aeruginosa
Source text: Silver and its complexes can strongly affect the growth of biofilms.[56]−[58] In view of the promising activity against Gram-negative bacteria as mentioned above, we evaluated the inhibiting effect of the silver complexes on biofilm production by P. aeruginosa by a method based on crystal violet staining (Table 4 and Figure S14). Complexes 3a–c and 4a–c were selected for the test based on the results of solubility, stability, and antibacterial screening. […] The lower activity of 3c might be explained by its lower kinetic solubility in the aqueous environment (see Figure 4).
The antibiofilm activity was determined according to a literature method.[73] A 1 mL aliquot of P. aeruginosa (PA 14) was taken from −20 °C stock, incubated in 25 mL LB medium (Luria–Bertani Broth) in a 250 mL flask, and kept at 37 °C at 100 rpm overnight. The optical density at 600 nm (OD600) of the culture solution was adjusted to match the turbidity of a 0.1 McFarland standard in M63 medium.[74] Selected compounds were mixed with 150 μL of bacterial solution in U-bottom 96 well plates to the final respective concentrations (25–0.2 μg/mL). The plates were further incubated at 37 °C for 24 h while shaking at 150 rpm. Afterward, the plates were rinsed once with 150 μL of PBS buffer, and the biofilms were stained using 150 μL of crystal violet (0.1%) staining at room temperature for 15 min and then rinsed once with PBS buffer. After rinsing, 150 μL of ethanol (95%) was added, and the absorbance was quantified using a plate reader (Synergy 2, BioTek, Santa Clara, USA) at 550 nm. The resulting antibiofilm activity is presented as percentage of inhibition at the respective smallest active concentration in μM with standard deviation (SD) of two repeats with duplicates. Myxovalargin A and DMSO (2.5%) were used as the positive and negative controls, respectively.

Row | Compound | Molar conductivity ΛM ([1]; 1 h after dissolution) [S cm^2 mol^–^1] | Molar conductivity ΛM ([1]; 24 h after dissolution) [S cm^2 mol^–^1] | EC50 [2] [µM] | MIC E. coli [2] [µM] | MIC E. coli (value in brackets) [2] [µg/mL] | MIC P. aeruginosa [3] [µM] | EC50 [3] [µM] | MIC P. aeruginosa (value in brackets) [3] [µg/mL] | MIC K. pneumoniae [4] [µM] | EC50 [4] [µM] | MIC K. pneumoniae (value in brackets) [4] [µg/mL] | MIC A. baumannii [5] [µM] | EC50 [5] [µM] | MIC A. baumannii (value in brackets) [5] [µg/mL] | MIC MRSA [6] [µM] | EC50 [6] [µM] | MIC MRSA (value in brackets) [6] [µg/mL] | MIC E. faecium [7] [µM] | EC50 [7] [µM] | MIC E. faecium (value in brackets) [7] [µg/mL] | also measured
1 | [Cl][Ag][c]1n(Cc2ccccn2)c2ccccc2[n+]1Cc1ccccn1 [6a] | 3.75 | 4.15 | 38.1 ± 6.9 | 48.1 ± 12.0 | 21 | 60.1 ± 12.0 | 33.6 ± 5.8 | 27 | 9.02 ± 0.0 | 5.9 ± 0.2 | 4 | 9.0 ± 0.0 | 1.6 ± 0.1 | 4 | 144 ± 0.0 | 91.3 ± 0.6 | 64 | 144 ± 0.0 | 133 ± 0.6 | 64 | –
2 | [Cl][Ag][c]1n(Cc2ccccc2)c2ccccc2[n+]1Cc1ccccn1 [5a] | 4.24 | 3.70 | 35.1 ± 1.1 | 60.2 ± 12.0 | 27 | 30.1 ± 6.0 | 16 ± 1.7 | 13 | 18.1 ± 0.0 | 8.5 ± 1 | 8 | 9.0 ± 0.0 | 1.7 | 4 | 145 ± 0.0 | 82.9 ± 1.5 | 64 | 145 ± 0.0 | 119 ± 3.6 | 64 | –
3 | myxovalargin A [reference compound] | – | – | – | – | – | – | – | – | – | – | – | – | – | – | – | – | – | – | – | – | smallest active concentration for biofilm inhibition ([8]; concentration at which the % inhibition was found): 18.6 µM; biofilm inhibition ([8]; ± SD, n = 4, at the respective smallest active concentration, 24 h): 68 ± 0%
4 | [Br][Ag][c]1n(Cc2ccccn2)c2ccccc2[n+]1Cc1ccccn1 [6b] | 6.13 | 6.50 | 14.6 ± 1 | 21.9 ± 5.5 | 10 | 27.3 ± 5.5 | 13.5 ± 3.7 | 13 | 13.7 ± 0.0 | 6.4 ± 0.2 | 7 | 8.2 ± 0.0 | 0.47 ± 0.02 | 4 | 132 ± 0.0 | 90.7 ± 4.5 | 64 | 132 ± 0.0 | 105 ± 0.1 | 64 | –
5 | [Br][Ag]=[c]1n(Cc2ccccc2)c2ccccc2n1Cc1ccccn1 [5b, Bromido (1-(Pyridin-2-ylmethyl)-3-benzyl-benzimidazol-2-ylidene) Silver(I)] | 6.58 | 5.68 | 27.1 ± 1.2 | 32.8 ± 0.0 | 16 | 65.7 ± 0.0 | 28.2 ± 2.7 | 32 | 16.4 ± 0.0 | 9.5 ± 0.3 | 8 | 16.4 ± 0.0 | 0.72 ± 0.15 | 8 | 131 ± 0.0 | 75.5 ± 1.4 | 64 | 131 ± 0.0 | 111 ± 0.2 | 64 | –
6 | Cn1[c]([Ag][Cl])[n+](Cc2ccccn2)c2ccccc21 [1a] | 2.88 | 3.05 | 53.3 ± 8.6 | 116 ± 29 | 43 | 10.9 ± 0.0 | 5.7 ± 0.8 | 4 | 18.2 ± 3.6 | 8.5 ± 1.2 | 7 | 14.6 ± 3.6 | 1.7 ± 0.4 | 5 | 175 ± 0.0 | 146 ± 2.8 | 64 | 175 ± 0.0 | 145 ± 2.3 | 64 | –
7 | CCn1[c](=[Ag][Cl])n(Cc2ccccn2)c2ccccc21 [2a, Chlorido (1-Ethyl-3-(pyridin-2-ylmethyl)-benzimidazol-2-ylidene) Silver(I)] | 3.47 | 3.03 | 33.3 ± 4.7 | 56.0 ± 14.0 | 21 | 10.5 ± 0.0 | 6.4 ± 0.5 | 4 | 17.5 ± 3.5 | 12 ± 0.9 | 7 | 10.5 ± 0.0 | 2.4 ± 0.1 | 4 | 168 ± 0.0 | 98.5 ± 0.8 | 64 | 168 ± 0.0 | 132 ± 6.8 | 64 | –
